Experimental data from patent publication US6534499B2, “N-substituted-N′-substituted urea derivatives and the use thereof as TNF-α production inhibitory agents” (Santen Pharmaceutical Co., Ltd., priority 1999, dated 2003).

Legend:
[1] = system: TNF-α production induced by LPS (plasma TNF-α); assay: In vivo test: plasma TNF-α level in LPS-administered mice; settings: female mice; 10 mg/kg subcutaneously immediately after LPS i.p.; plasma one hour after LPS; mouse TNF-α ELISA
Description: (§1) Each candidate compound was inspected for the effect of inhibiting TNF-α production induced by the stimulation with lipopolysaccharide (LPS), by an in vitro or in vivo test according to the method proposed by McGeehan et al. (Nature, 1994, 370:558-561).
Animals used herein were about 7-week-old female mice (5 animals per group) having a body weight of about 20 g. The LPS herein used was derived from Salmonella and it was dissolved in phosphate-buffered physiological saline prior to the practical use (20 μg/ml). Each candidate compound was dissolved or suspended in a 2% dimethyl sulfoxide-containing physiological saline to give a uniform solution or suspension (1 mg/ml).
The LPS solution (10 ml/kg) prepared above was intraperitoneally administered to each test mouse. Immediately after the administration of the LPS solution, the solution of each candidate compound prepared above (10 ml/kg, containing 10 mg/kg of the candidate compound) was subcutaneously injected to each animal. After one hour from the administration of the LPS, each animal was decapitated, the blood was collected from the animal and the blood was centrifuged at 4° C., 3000 rpm for 5 minutes. The resulting plasma was inspected for the level of TNF-α using the mouse TNF-α -specific ELISA kit. In this connection, any TNF-α was not detected in the plasma derived from the animal group free of the LPS-administration (control group).
The rate of TNF-α production-inhibitory effect observed for each candidate compound was determined according to the following equation:
Inhibitory Rate (%)=100×(A−B)/A
Wherein A is the level of TNF-α detected in the plasma derived from the animal group to which any candidate compound was not administered and B is the level of TNF-α detected in the plasma derived from the animal group to which a candidate compound was administered.

[2] = system: TNF-α produced by the human monocyte strain THP-1; assay: In vitro test: TNF-α production by THP-1 cells induced by stimulation with LPS; format: cell-based; settings: 2 h; compound 10^−5M; THP-1 cells 10^6 cells/ml; LPS 2 μg/ml; 37° C., two hours; human TNF-α ELISA; read-out: Inhibitory Rate (%) of TNF-α production
Description: as §1
The test was carried out by, determining the amount of TNF-α produced by the human monocyte strain THP-1 induced by the stimulation with LPS.
The culture medium used in this test was RPMI 1640 culture medium supplemented wiTNFetal calf serum (10%), L-glutamine (2 mM), 2-mercaptoethanol (50 μM), penicillin (50 units/ml) and streptomycin (50 μg/ml).
Regarding the cells, the human monocyte strain THP-1 cells cultivated in the foregoing culture medium were centrifuged at 100 xg for 5 minutes to remove the supernatant and then again suspended in a fresh culture medium prior to the practical use. The LPS used herein was derived from S. Typhimurium and this was dissolved in purified water and then diluted with the culture medium prior to use. Each compound to be tested was dissolved in dimethyl sulfoxide (DMSO) and diluted with the culture medium prior to the practical use.
The cells (10^6 cells/ml) prepared according to the foregoing method were admixed with the LPS (2 μg/ml) and a compound to be tested (10^−5M), the cells were incubated at 37° C. for two hours and then centrifuged at 1000 xg for 5 minutes. The resulting supernatant of the culture medium was inspected for the level of TNF-α using the human TNF-α -specific ELISA kit. In this connection, it was confirmed that the supernatant obtained by cultivating the cells in the culture medium free of any LPS (control) never included any TNF-α.
The rate of the TNF-α production inhibitory effect observed for each candidate compound was determined according to the following equation: […]
Wherein A is the level of TNF-α detected in the supernatant obtained from the culture medium free of any candidate compound and B is the level of TNF-α detected in the supernatant obtained from the culture medium containing a candidate compound.

Row | Compound | Inhibitory Rate (%) of TNF-α production [1] [%] | melting point | inhibition at 10 µM [2] [%]
1 | CC(=O)SCCN(CCC1CCCCC1)C(=O)NCCN1CCCC1 [Compound 3-2, 1-[2-(Acetylthio)ethyl]-1-(2-cyclohexylethyl)-3-[2-(1-pyrrolidinyl)ethyl]-urea] | 50 | – | –
2 | O=C(NCC1CCN(C(=O)OCc2ccccc2)CC1)N(CCO)CCC1CCCCC1 [Compound 1-18, 1-[[1-(Benzyloxycarbonyl)-4-piperidyl]methyl]-3-(2-cyclohexylethyl)-3-(2-hydroxy-ethyl) urea] | – | 94.5 to 95.5 °C | –
3 | CC(=O)SCCN(CCc1ccccc1)C(=O)N[C@@H](Cc1ccccc1)CN1CCN(C)CC1 [Compound 3-6, 1-[2-(Acetylthio)ethyl]-3-[(1S)-1-benzyl-2-(4-methylpiperazin-1-yl)ethyl]-1-phenethyl urea] | – | – | 94
4 | CC(=O)SCCN(CCC1CCCCC1)C(=O)NCC1CCN(C)CC1.Cl [Compound 6-3, 1-[2-(Acetylthio)ethyl]-1-(2-cyclohexylethyl)-3-[(1-methyl-4-piperidyl)-methyl]urea hydrochloride] | 50 | – | –
5 | CSCCN(CCC1CCCCC1)C(=O)NCCN1CCCCC1.Cl [Compound 6-4, 1-(2-Cyclohexylethyl)-1-[2-(methylthio)ethyl]-3-[2-(1-piperidyl)ethyl]urea hydrochloride] | 59 | – | –
6 | CC(=O)SCCN(CCC1CCCCC1)C(=O)NCCN1CCC(N(C)C)CC1.Cl.Cl [Compound 6-2, 1-[2-(Acetylthio)ethyl]-1-(2-cyclohexylethyl)-3-[2-[4-(dimethylamino)-1-piperidyl]ethyl]urea di-hydrochloride] | – | 170 °C (dec.) | 58
7 | CC(=O)SCCN(CCC1CCCCC1)C(=O)NCCN1CCCCC1.Cl [Compound 6-1, 1-[2-(Acetylthio)ethyl]-1-(2-cyclohexylethyl)-3-[2-(1-piperidyl)-ethyl]urea hydrochloride] | 78 | – | –
8 | CCN1CCCC1CNC(=O)N(CCSC(C)=O)CCC1CCCCC1 (racemic) [Compound 3-17, 1-[2-(Acetylthio)ethyl]-1-(2-cyclohexylethyl)-3-[[(2RS)-1-ethyl-2-pyrrolidinyl]methyl] urea] | 52 | – | –
9 | CC(=O)SCCN(CCC1CCCCC1)C(=O)NCCCN1CCCCC1 [Compound 3-4, 1-[2-(Acetylthio)ethyl]-1-(2-cyclohexylethyl)-3-[3-(1-piperidyl)propyl]urea] | 51 | – | –
10 | CC(=O)SCCN(CCC1CCCCC1)C(=O)NCCN1CCCCCC1 [Compound 3-9, 1-[2-(Acetylthio)ethyl]-1-(2-cyclohexylethyl)-3-[2-(l-homopiperidyl)ethyl]-urea] | 76 | – | –
11 | CC(=O)SCCN(CCC1CCCCC1)C(=O)NCCN1CC=CCC1 [Compound 3-13, 1-[2-(Acetylthio)ethyl]-1-(2-cyclohexylethyl)-3-[2-(1,2,5,6-tetrahydropyridin-1-yl)ethyl] urea] | – | – | 66
12 | CC(=O)SCCN(CCC1CCCCC1)C(=O)NCCCN1CCCC1 [Compound 3-3, 1-[2-(Acetylthio)ethyl]-1-(2-cyclohexylethyl)-3-[3-(1-pyrrolidinyl)propyl]-urea] | 64 | – | –
